The values that follow come from patent US10927107B2, “Phenyl [a]indole[2,3-g]quinolizine compounds, preparation method therefor, pharmaceutical composition, and applications thereof” (Shanghai Institute of Materia Medica, Chinese Academy of …, priority 2016, dated 2021).

Each structure is given as a SMILES string. Read-outs that look alike come from different tables or passages of the source.

The test system of series [1] is Syrian golden hamsters (high-fat diet, hyperlipidemia model). Briefly: In vivo lipid-lowering activity in high-fat diet golden hamsters. The following applies: for CHOL / HDL-C / LDL-C / TG: high-fat diet, serum. More on the design: species or system Syrian golden hamster. On the procedure:
After adaptively feeding Syrian golden hamsters (male, 80-100 g) for a week, all hamsters were fed with high-fat diet. Two weeks later, blood was collected from the orbital venous plexus, serum was separated, and levels of total cholesterol (TC), triglyceride (TG), high-density lipoprotein (HDL-C) and low-density lipoprotein (LDL-C) in serum were measured. They were evenly grouped according to blood lipid levels into […]: model control group, A1 intragastric administration group, A1 intraperitoneal administration group, A5 intragastric administration group, A5 intraperitoneal administration group, A55 intragastric administration group, A55 intraperitoneal administration group, B5 intragastric administration group, B5 intraperitoneal administration group, and the animals in each group were continued to be administered with high fat diet. […] […] Blood lipid levels and body weights were measured every 10 days. After three weeks, the animals were sacrificed and the liver was stored in a −80° C. refrigerator.

The nature of series [2]: Rat pharmacokinetics. In kind it is in vivo. More on the design: AUC(0-t) / AUC(0-inf): concentration or dose not given beside the values. The settings on record: in vivo; for AUC(0-inf): read-out: AUCINF—obs; for MRT inf: read-out: MRTINF—obs. On the procedure:
A1 10 μL of a plasma sample was taken in a centrifuge tube and 100 μL of methanol:acetonitrile (1:1, v/v) was added, vortexed for 1 min, centrifugated (14000 rpm) for 5 min, and 50 μL supernatant was taken, mixed with equal volume of water, and analysised after vortex mixing. The linear range of A1 is: 0.1-300 ng/mL for oral administration and 1-3000 ng/mL for intravenous injection.
A55 10 μL of a plasma sample was taken in a centrifuge tube and 100 μL of methanol:acetonitrile (1:1, v/v) was added, vortexed for 1 min, centrifugated (14000 rpm) for 5 min, and 50 μL supernatant was taken, mixed with equal volume of water, and analysised after vortex mixing. The linear range of A55 is: 0.1-300 ng/mL for oral administration and 0.3-3000 ng/mL for intravenous injection.

Series [3] is described as follows: Rat pharmacokinetics. The settings on record: in vivo, ip, i.p; for AUC(0-inf): read-out: AUCINF—obs; for MRT inf: read-out: MRTINF—obs. More on the design: AUC(0-t) / AUC(0-inf): concentration or dose not given beside the values.
Series [4] addresses T1, α1A-adrenergic receptor (α1A-AR) (Homo sapiens, UniProt P35348).
T1 construct: expressed in transfected cells; host or cells: HEK293
T1 sequence (P35348 1-466): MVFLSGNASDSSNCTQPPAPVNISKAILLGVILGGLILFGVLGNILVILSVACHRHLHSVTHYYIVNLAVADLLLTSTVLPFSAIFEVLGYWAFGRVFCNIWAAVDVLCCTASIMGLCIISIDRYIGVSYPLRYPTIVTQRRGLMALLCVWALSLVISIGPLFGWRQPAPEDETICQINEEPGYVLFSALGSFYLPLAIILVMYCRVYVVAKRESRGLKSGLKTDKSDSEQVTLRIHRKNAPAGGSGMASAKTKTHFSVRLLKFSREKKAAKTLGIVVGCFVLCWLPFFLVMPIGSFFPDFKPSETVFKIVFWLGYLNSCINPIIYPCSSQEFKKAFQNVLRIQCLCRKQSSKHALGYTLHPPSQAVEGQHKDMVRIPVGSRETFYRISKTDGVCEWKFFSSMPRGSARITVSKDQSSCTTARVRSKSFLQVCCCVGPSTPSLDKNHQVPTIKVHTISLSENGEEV
Briefly: Antagonistic activity on α1A-AR: calcium fluorescence in HEK293 cells stimulated with phenylephrine. In kind it is cell-based. On the procedure:
HEK293 cells stably expressing α1A-adrenergic receptor (α1A-AR) and G protein […] were seeded in 96-well plates. After 24 hours of culture, the medium was removed, and 40 μL of Hank's balanced salt solution (HBSS: containing 5.4 mM KCl, 0.3 mM Na2HPO4, 0.4 mM KH2PO4, 4.2 mM NaHCO3, 1.3 mM CaCl2, 0.5 mM MgCl2, 0.6 mM MgSO4, 137 mM NaCl, 5.6 mM D-glucose and 250 μM sulfinpyridone, pH 7.4) containing 2 μM of MFluo-4AM was added to each well, and incubated for 45 minutes in an incubator. The dye was aspirated and 50 μL of HBSS containing a test compound or 1% DMSO (negative control) was added and incubated for 10 minutes at room temperature, and then read with Flex Station 3 microplate reader. At the specified time point, 25 μL of agonist phenylephrine (final concentration 30 nM) will be automatically added by the detector into the reaction system, and simultaneously stimulated with 485 nm light, and the change in intensity of fluorescence caused by the change in the intracellular calcium ion concentration was detected at 525 nm. […] The response rate of different doses of the same drug was analyzed by GraphPad Prism software to obtain a dose-response curve and the IC50 value was measured. Each experiment was performed in […].

In a further series the test system is HepG2 cells. Briefly: In vitro lipid-lowering activity: DiI-LDL uptake in HepG2 cells. In kind it is cell-based. The settings on record: Homo sapiens, test compound 5 uM, 24 h, DiI-LDL 20 ug/ml, 3 h, FLU of sample group/FLU of blank group x100%, read-out: LDL uptake rate. On the procedure: HepG2 cells were inoculated in 24-well plates, cultured in DMEM containing 10% FBS for 24 h or 48 h, and then transferred to DMEM containing 2% defatted serum and cultivated for 24 h. The old culture solution was discarded and replaced with new 2% defatted serum DMEM, and a test compound (the working concentration of which is 5 uM, triplicate for each sample) was added and incubated for 24 h. The old culture solution was abandoned and DMEM containing DiI-LDL (20 ug/ml) was added (300 ul/per 24 wells), incubated for 3 h. DMEM containing DiI-LDL was discarded, and cells were rinsed twice with PBS containing 0.4% BSA, and 3 times with PBS to remove excess DiI-LDL. Isopropanol was added (500 ul/per well of a 24-well plate), and was kept in darkness. After shaken for 20 minutes, 200 ul of supernatant was sucked to a black fluorescent plate, and fluorescence intensity (FLU) was detected at excitation light 520 nm and emission light 578 nm. The experimental results were calculated: LDL uptake rate=(FLU value of sample group to be tested/FLU value of blank group)×100%.

Setting [5] is: HEK293 cells expressing α1A-AR, agonist phenylephrine 30 nM, calcium fluorescence, read-out: α1A-AR/IC50.
Setting [6] is: abdominal (intraperitoneal) 30 mg/kg once a day for three weeks.
Where [7] appears, read: oral (intragastric) 30 mg/kg once a day for three weeks.

Regarding `COc1ccc2[nH]c3c(c2c1)CC1c2cc(OCc4ccc(C(F)(F)F)cc4)c(OC)cc2CCN1C3` (stereo not drawn) [Example C3, 3,12-dimethoxy-2-((4-(trifluoromethyl)benzyl)oxy)-5,6,8,9,14,14a-hexahydroindolo[3′,2′:4,5]pyridine[2,1-a]isoquinoline], the TC in series [1] (Dose 30, oral) came to 25.08 ± 16.98 mmol/L. For the same molecule, the TC in series [1] (Dose 100, oral) was 21.17 ± 3.89 mmol/L. The molecule also showed a half-life in the series “Rat pharmacokinetics [2]” (ip, i.p) of 18.5 h. In “Rat pharmacokinetics [2]” (po, i.g), the AUC(0-t) was found to be 3.96 µg·h/mL, the highest concentration (Cmax) was determined as 297 ng/mL, the time of peak concentration (Tmax) was 4 h and the bioavailability was determined as 57.2%. For the same molecule, in “Rat pharmacokinetics [2]” (po, i.g), the half-life was 6.53 h, the AUC(0-inf) amounted to 4.34 µg·h/mL and the MRT inf is 7.74 h. In addition, in the series “Rat pharmacokinetics [3]”, the AUC(0-t) worked out at 3.47 µg·h/mL, the AUC(0-inf) amounted to 9.36 µg·h/mL and the MRT inf stood at 15.3 h.
For `COc1ccc2[nH]c3c(c2c1)CC1c2cc(OC)c(OCc4ccc(C(F)(F)F)cc4)cc2CCN1C3` (stereo not drawn) [Example C47, 2,12-dimethoxy-3-((4-(trifluoromethyl)benzyl)oxy)-5,6,8,9,14,14a-hexahydroindolo[3′,2′:4,5]pyridine[2,1-a]isoquinoline], in series [4] (setting [5]), the IC50 was more than 100 µM. In series [1] (Dose 30, oral), the TC came to 19.73 ± 6.44 mmol/L. Moreover, the activity at 5 µM in the series with HepG2 cells came to 150%. Further, in “Rat pharmacokinetics [2]” (ip, i.p), the peak concentration (Cmax) came out at 276 ng/mL, the Tmax is 24 h and the half-life was 51.2 h. In “Rat pharmacokinetics [2]” (po, i.g), the area under the curve AUC(0-t) was 9.25 µg·h/mL, the Cmax was determined as 251 ng/mL, the Tmax was 4 h and the bioavailability was 31%. Further, in “Rat pharmacokinetics [2]” (po, i.g), the half-life was 38.2 h, the AUC(0-inf) is 564 µg·h/mL and the MRT inf was determined as 56.1 h. Besides, in “Rat pharmacokinetics [3]”, the exposure AUC(0-t) came out at 14.9 µg·h/mL, the AUC(0-inf) was 1120 µg·h/mL and the MRT inf is 66.4 h.
As for `COc1ccc2c(c1)c1c(n2CO)CN2CCc3cc(OCc4cccc(F)c4)c(OC)cc3C2C1` (stereo not drawn) [Example A61, (3-((3-fluorobenzyl)oxy)-2,12-dimethoxy-5,6,14,14a-tetrahydroindolo[3′,2′:4,5]pyridine[2,1-a]isoquinoline-9(8H)-yl)methanol], the IC50 in series [4] (setting [5]) is 4.53 µM. Further, the TC is listed as 37.11 ± 11.19 mmol/L in series [1] (Dose 30, oral) and 22.57 ± 6.37 mmol/L in series [1] (Dose 100, oral). Moreover, in the series on HepG2 cells, the activity at 5 µM was determined as 165%.
Turning to `COc1ccc2c(c1)c1c(n2CO)CN2CCc3cc(OCc4ccc(C)cc4)c(OC)cc3C2C1` (stereo not drawn) [Example A69, (2,12-Dimethoxy-3-((4-methylbenzyl)oxy)-5,6,14,14a-tetrahydroindolo[3′,2′:4,5]pyridine[2,1-a]isoquinoline-9(8H)-yl)methanol], the IC50 in series [4] (setting [5]) was more than 100 µM. Besides, in the series on HepG2 cells, the activity at 5 µM came to 140%.
As to `COc1ccc2[nH]c3c(c2c1)CC1c2cc(OC)c(OCc4ccc(F)cc4)cc2CCN1C3` (stereo not drawn) [Example C49, 3-((4-Fluorobenzyl)oxo)-2,12-dimethoxy-5,6,8,9,14,14a-hexahydroindole[3′,2′:4,5]pyridine[2,1-a]isoquinoline], the IC50 in series [4] (setting [5]) was 6.58 µM; in series [4] (statement in text on Table 2, read-out: antagonistic activity to α1A-AR), less than 10 µM. The activity at 5 µM in the series with HepG2 cells was determined as 194%.
In the case of `COc1ccc2[nH]c3c(c2c1)CC1c2cc(OC)c(OCc4ccccc4F)cc2CCN1C3` (stereo not drawn) [Example C53, 3-((2-Fluorobenzyl)oxo)-2,12-dimethoxy-5,6,8,9,14,14a-hexahydroindole[3′,2′:4,5]pyridine[2,1-a]isoquinoline], the IC50 in series [4] (setting [5]) worked out at 17.5 µM. Also, the activity at 5 µM with HepG2 cells was determined as 112%.
For the molecule `COc1ccc2[nH]c3c(c2c1)CC1c2cc(OCc4ccc(F)cc4)c(OC)cc2CCN1C3c1ccc(F)cc1` (stereo not drawn) [Example B5, 2-((4-fluorobenzyl)oxo)-8-(4-fluorophenyl)-3,12-dimethoxy-5,6,8,9,14,14a-hexahydroindole[3′,2′:4,5]pyridine[2,1-a]isoquinoline], in series [4] (setting [5]), the IC50 was more than 100 µM. Besides, in series [1] (setting [6]), the CHOL turned out to be 14.92 mmol/L, the HDL-C is listed as 2.90 mmol/L, the LDL-C is reported as 7.89 mmol/L and the TG is 16.14 mmol/L. In series [1] (setting [7]), the CHOL is recorded as 14.79 mmol/L, the HDL-C was found to be 3.99 mmol/L, the LDL-C was 7.66 mmol/L and the TG turned out to be 11.94 mmol/L. In series [1] (hyperlipidemia model), the “contents of cholesterol (CHOL), triglyceride (TG) and low density lipoprotein (LDL-C) in the blood” value was “significantly reduced”. Moreover, the activity at 5 µM in the series with HepG2 cells was 134%.
